Reference: patent publication US9090601B2, “Thiazole derivatives” (Millennium Pharmaceuticals, Inc., priority 2009, dated 2015)

Target: T1, human mTOR (Homo sapiens, UniProt P42345)
T1 construct: purchased Invitrogen
Experiment: Human mTOR enzyme assay (Z'-lyte peptide FRET)
Assay type: biochemical
Details: mTOR enzyme activity, compound at 1.0 μm, 10 μM ATP
Protocol: mTOR reaction buffer (50 mM HEPES, pH 7.5, 5 mM MgCl2, 5 mM MnCl2, 1 mM EGTA, 1 mM DTT, 0.01% BRIJ-35, 0.01% NaN3) containing human mTOR (Invitrogen), 10 μM ATP and 2 μM Z′-lyte 11Ser/Thr peptide (Invitrogen) is added to the well and the mixture is reacted at room temperature for 1 hr.
Development Buffer containing Development Reagent B (for Z′-lyte peptide, Invitrogen) was added, and the mixture is reacted at room temperature for 30 min. The fluorescence at 520 nm and fluorescence at 445 nm are measured with excitation at 400 nm using SpectraMax M5e (Molecular Device). The ratio of the obtained 445 nm fluorescence value/520 nm fluorescence value is calculated, and changes in the fluorescence resonance energy transfer (FRET) of Z′-lyte peptide are detected as the enzyme activity.

T1 sequence (P42345 1360-2549 limits assumed): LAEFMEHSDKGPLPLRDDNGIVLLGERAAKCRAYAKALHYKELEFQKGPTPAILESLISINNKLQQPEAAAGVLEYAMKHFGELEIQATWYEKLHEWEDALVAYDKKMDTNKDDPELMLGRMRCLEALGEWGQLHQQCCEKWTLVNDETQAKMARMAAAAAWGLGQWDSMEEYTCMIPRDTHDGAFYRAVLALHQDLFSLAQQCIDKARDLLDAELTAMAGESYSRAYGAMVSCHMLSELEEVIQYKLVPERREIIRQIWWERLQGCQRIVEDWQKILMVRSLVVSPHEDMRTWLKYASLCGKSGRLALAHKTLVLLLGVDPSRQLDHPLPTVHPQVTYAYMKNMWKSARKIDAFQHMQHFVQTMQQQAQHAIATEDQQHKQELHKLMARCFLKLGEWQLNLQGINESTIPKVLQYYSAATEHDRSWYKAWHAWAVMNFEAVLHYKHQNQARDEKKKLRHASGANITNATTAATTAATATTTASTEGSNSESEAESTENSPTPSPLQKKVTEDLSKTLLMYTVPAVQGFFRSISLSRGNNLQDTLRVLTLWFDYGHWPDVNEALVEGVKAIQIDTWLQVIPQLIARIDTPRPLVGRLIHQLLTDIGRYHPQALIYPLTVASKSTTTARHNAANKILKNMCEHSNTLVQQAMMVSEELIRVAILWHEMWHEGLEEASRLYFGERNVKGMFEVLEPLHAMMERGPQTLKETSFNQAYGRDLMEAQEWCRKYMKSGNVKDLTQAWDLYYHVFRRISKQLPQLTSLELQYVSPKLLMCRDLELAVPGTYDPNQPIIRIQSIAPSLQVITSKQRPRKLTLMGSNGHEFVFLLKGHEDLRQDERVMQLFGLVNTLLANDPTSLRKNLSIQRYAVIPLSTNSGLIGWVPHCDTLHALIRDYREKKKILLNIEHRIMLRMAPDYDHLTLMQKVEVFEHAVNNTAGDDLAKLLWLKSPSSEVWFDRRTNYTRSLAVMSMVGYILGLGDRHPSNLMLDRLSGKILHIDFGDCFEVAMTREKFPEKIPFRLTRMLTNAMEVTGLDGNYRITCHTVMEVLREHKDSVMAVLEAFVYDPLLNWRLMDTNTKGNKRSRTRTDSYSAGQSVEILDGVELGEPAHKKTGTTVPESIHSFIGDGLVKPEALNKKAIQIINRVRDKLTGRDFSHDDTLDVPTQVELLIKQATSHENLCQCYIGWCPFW

SMILES: Cc1nn2ccc(OCCN3CCOCC3)cc2c1-c1nc(-c2ccccc2)c(-c2nnc[nH]2)s1 [Example 31-B, 2-methyl-5-(2-morpholin-4-ylethoxy)-3-[4-phenyl-5-(4H-1,2,4-triazol-3-yl)-1,3-thiazol-2-yl]pyrazolo[1,5-a]pyridine di-p-toluenesulfonate]
- Inhibitory rate at 1.0 μm (%): 93%
